15 compounds from patent US8946413B2 (Pfizer Inc., priority 2008, dated 2015) can be followed below.

Where two headings read alike, the source gives them in different places.

In this assay the target is T1, CCR2 (Homo sapiens, UniProt P41597).
T1 construct: (leukophoresis pack); host or cells: human peripheral blood mononuclear cells (PBMCs) from a normal human leukophoresis pack
As to the kind of experiment: hCCR2 (125-I hMCP-1) small molecule binding assay on human PBMCs. The note with it: 125I-MCP-1, human PBMCs. The source says:
The CCR2 antagonist activity of compounds of the invention can be reported as the inhibitor concentration required for 50% inhibition (IC50 values) of specific binding in receptor binding assays using 125I-labeled MCP-1, as ligand, and Peripheral Blood Mononuclear Cells (PBMCs) prepared from normal human whole blood via density gradient centrifugation. Specific binding is defined as the total binding (e.g., total cpm on filters) minus the non-specific binding. Non-specific binding is defined as the amount of cpm still defected in the presence of excess unlabeled competitor (e.g., MCP-1),
Human PBMCs were used to test compounds of the invention in a binding assay. For example, 200,000 to 500,000 cells were incubated with 0.1 to 0.2 nM 125I-labeled MCP-1, with or without unlabeled competitor (10 nM MCP-1) or various concentrations of compounds to be tested. 125I-labeled MCP-1, were prepared by suitable methods or purchased from commercial vendors (Perkin Elmer, Boston Mass.). The binding reactions were performed in 50 to 250 μL of a binding buffer consisting of […] pH 7.2, and 0.1% BSA (bovine serum albumin), for 30 minutes at room temperature. The binding reactions were terminated by harvesting the membranes by rapid filtration through glass fiber filters (Perkin Elmer) which was presoaked in 0.3% polyethyleneimine or Phosphate Buffered Saline (PBS). The filters were rinsed with approximately 600 μL of binding buffer containing, 0.5 M NaCl or PBS, then dried, and the amount of bound radioactivity was determined by counting on a Gamma Counter (Perkin Elmer).
More specifically, the following assay may be employed to determine IC50 values for the compounds of the present invention.
hCCR2 (125-I hMCP-1) Small Molecule Binding Assay
Normal human leukophoresis pack contents, available from Biological Specialty Corporation, Colmar, Pa., is diluted 1:1 with PBS, divided into 50 ml conical tubes (preferably less than 40 mls per tube), and underlayed with 10 mls of Ficoll-Paque PLUS (GE Healthcare 17-1440-02). The tubes are centrifuged at 2800 rpm in a clinical centrifuge at room temperature for 30 mins, with no brake. The plasma layer is suctioned, and the buffycoat layer is collected. The collected buffycoat layer is washed twice with 50 mls PBS, and centrifuged at 1400 rpm with brake. The cells are counted. The cells are then diluted to 1×10^7 cells per ml in binding buffer.
96 well plates (such as, for example, Millipore MultiScreen96 plates) are pre-wet with about 100 μl binding buffer (RPMI+0.1% BSA+20 mM HEPES), and blotted just prior to compound addition.
5 μl of 50 μM test compounds in 100% DMSO are dotted onto U-bottom polypropylene 96-well plates.
245 μl per well of Binding Buffer is added to each well for 1 μM compound concentration in 2% DMSO.
50 μl of 1 μM compound is transferred to pre-wetted Millipore plates. 50 μl per well of 1×10E7 cells per ml of freshly prepared human PBMCs are added.
The samples are pre-incubated at room temperature for 30 minutes or 1 hour.
50 μl of 450 pM 125-I-hMCP-1 (Perkin-Elmer/NEN cat#NEX332025UC) is added for a final concentration 125-I-hMCP-1 of 150 pM per well.
The final test compound concentration is 0.333 uM in 150 μl total volume with 0.67% DMSO in all wells. Controls for this assay consist of 0% inhibition and 100% inhibition with 1 uM hMCP-1 (saturating conditions). All wells are run in duplicate. Controls may be in replicates of eight.
The samples are incubated at room temperature for 30 minutes.
The buffer is suctioned through the Millipore plates. The plates are washed three times with Wash Buffer (PRMI+0.1% BSA+20 mM HEPES+ 0.4 M NaC).
The plate underdrain is removed. The plate filters are allowed to dry. The filters are then punched out into plastic tubes.
Finally, the sample is counted an a Gamma Counter.
All IC50 plates were repeated for an n=2.
The following table summarizes the IC50 values identified through the described assay.

Where [1] appears, read: 30 min preincubation, read-out: IC50 (nM) 30 min preinc.
[2] abbreviates: 1 hr preincubation, read-out: IC50 (nM) 1 hr preinc.

T1 sequence (P41597 whole entry): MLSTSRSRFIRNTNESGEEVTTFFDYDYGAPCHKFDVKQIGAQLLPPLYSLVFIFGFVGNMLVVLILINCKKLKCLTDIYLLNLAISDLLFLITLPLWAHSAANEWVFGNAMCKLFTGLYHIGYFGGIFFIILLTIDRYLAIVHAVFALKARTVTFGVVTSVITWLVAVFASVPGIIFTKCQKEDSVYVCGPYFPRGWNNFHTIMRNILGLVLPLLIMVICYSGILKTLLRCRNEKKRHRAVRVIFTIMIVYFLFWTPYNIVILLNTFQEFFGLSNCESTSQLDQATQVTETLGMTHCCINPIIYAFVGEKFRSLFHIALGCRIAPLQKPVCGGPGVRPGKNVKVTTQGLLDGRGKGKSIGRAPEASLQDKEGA

For `CC[C@]1(C(=O)N2C[C@@H]3C[C@H]2CN3c2cc(C(F)(F)F)ccn2)CC[C@@H](N[C@H]2CCOC[C@H]2OC)C1` [Example 1, 1,5-anhydro-2,3-dideoxy-3-{[(1R,3S)-3-ethyl-3-({(1S,4S)-5-[4-(trifluoromethyl)pyridin-2-yl]-2,5-diazabicyclo[2.2.1]hept-2-yl}carbonyl)cyclopentyl]amino}-4-O-methyl-D-erythro-pentitol], under setting [1], the IC50 is 2.47 nM. The same measure, in the same setting: to `CC[C@]1(C(=O)N2C[C@@H]3C[C@H]2CN3c2nccc(C(F)(F)F)n2)CC[C@@H](N[C@H]2CCOC[C@H]2OC)C1` [Example 2, 1,5-anhydro-2,3-dideoxy-3-{[(1R,3S)-3-ethyl-3-({(1S,4S)-5-[4-(trifluoromethyl)pyrimidin-2-yl]-2,5-diazabicyclo[2.2.1]hept-2-yl}carbonyl)cyclopentyl]amino}-4-O-methyl-D-erythro-pentitol] belongs 3.16 nM; to `CC[C@]1(C(=O)N2C[C@@H]3C[C@H]2CN3c2cc(C(F)(F)F)ncn2)CC[C@@H](N[C@H]2CCOC[C@H]2OC)C1` [Example 3, 1,5-anhydro-2,3-dideoxy-3-{[(1R,3S)-3-ethyl-3-({(1S,4S)-5-[6-(trifluoromethyl)pyrimidin-4-yl]-2,5-diazabicyclo[2.2.1]hept-2-yl}carbonyl)cyclopentyl]amino}-4-O-methyl-D-erythro-pentitol], 17.8 nM; to `CC[C@]1(C(=O)N2C[C@@H]3C[C@H]2CN3c2cncc(C(F)(F)F)n2)CC[C@@H](N[C@H]2CCOC[C@H]2OC)C1` [Example 4, 1,5-anhydro-2,3-dideoxy-3-{[(1R,3S)-3-ethyl-3-({(1S,4S)-5-[6-(trifluoromethyl)pyrazin-2-yl]-2,5-diazabicyclo[2.2.1]hept-2-yl}carbonyl)cyclopentyl]amino}-4-O-methyl-D-erythro-pentitol], 3.98 nM.

In the case of `CC[C@]1(C(=O)N2C[C@@H]3C[C@H]2CN3c2ccnc(C(F)(F)F)n2)CC[C@@H](N[C@H]2CCOC[C@H]2OC)C1` [Example 5, 1,5-anhydro-2,3-dideoxy-3-{[(1R,3S)-3-ethyl-3-({(1S,4S)-5-[2-(trifluoromethyl)pyrimidin-4-yl]-2,5-diazabicyclo[2.2.1]hept-2-yl}carbonyl)cyclopentyl]amino}-4-O-methyl-D-erythro-pentitol], the IC50 under setting [1] came out at 13.3 nM. On the same count and under the same terms, to `CC[C@]1(C(=O)N2C[C@@H]3C[C@H]2CN3c2cccc(C(F)(F)F)n2)CC[C@@H](N[C@H]2CCOC[C@H]2OC)C1` [Example 6, 1,5-anhydro-2,3-dideoxy-3-{[(1R,3S)-3-ethyl-3-({(1S,4S)-5-[6-(trifluoromethyl)pyridin-2-yl]-2,5-diazabicyclo[2.2.1]hept-2-yl}carbonyl)cyclopentyl]amino}-4-O-methyl-D-erythro-pentitol] belongs 1.73 nM; to `CC[C@]1(C(=O)N2C[C@@H]3C[C@H]2CN3c2ccnc(C(F)(F)F)c2)CC[C@@H](N[C@H]2CCOC[C@H]2OC)C1` [Example 7, 1,5-anhydro-2,3-dideoxy-3-{[(1R,3S)-3-ethyl-3-({(1S,4S)-5-[2-(trifluoromethyl)pyridin-4-yl]-2,5-diazabicyclo[2.2.1]hept-2-yl}carbonyl)cyclopentyl]amino}-4-O-methyl-D-erythro-pentitol], 17.1 nM. The same measure, in the same setting: to `CC[C@]1(C(=O)N2C[C@@H]3C[C@H]2CN3c2nccc(C(F)(F)F)c2F)CC[C@@H](N[C@H]2CCOC[C@H]2OC)C1` [Example 8, 1,5-anhydro-2,3-dideoxy-3-{[(1R,3S)-3-ethyl-3-({(1S,4S)-5-[3-fluoro-4-(trifluoromethyl)pyridin-2-yl]-2,5-diazabicyclo[2.2.1]hept-2-yl}carbonyl)cyclopentyl]amino}-4-O-methyl-D-erythro-pentitol] belongs 10.7 nM; to `CO[C@@H]1COCC[C@@H]1N[C@@H]1CC[C@](C)(C(=O)N2C[C@@H]3C[C@H]2CN3c2cc(C(F)(F)F)ccn2)C1` [Example 9, 1,5-anhydro-2,3-dideoxy-3-{[(1R,3S)-3-methyl-3-({(1S,4S)-5-[4-(trifluoromethyl)pyridine-2-yl]-2,5-diazabicyclo[2.2.1]hept-2-yl}carbonyl)cyclopentyl]amino}-4-O-methyl-D-erythro-pentitol], 30.7 nM. The same measure, in the same setting: to `CO[C@@H]1COCC[C@@H]1N[C@@H]1CC[C@](C)(C(=O)N2C[C@@H]3C[C@H]2CN3c2cncc(C(F)(F)F)n2)C1` [Example 10, 1,5-anhydro-2,3-dideoxy-3-{[(1R,3S)-3-methyl-3-({(1S,4S)-5-[6-(trifluoromethyl)pyrazin-2-yl]-2,5-diazabicyclo[2.2.1]hept-2-yl}carbonyl)cyclopentyl]amino}-4-O-methyl-D-erythro-pentitol] belongs 83.8 nM. `CO[C@@H]1COCC[C@@H]1N[C@@H]1CC[C@@](C(=O)N2C[C@@H]3C[C@H]2CN3c2cc(C(F)(F)F)ccn2)(C(C)C)C1` [Example 11, 1,5-anhydro-2,3-dideoxy-3-{[(1R,3S)-3-isopropyl-3-({(1S,4S)-5-[4-(trifluoromethyl)pyridin-2-yl]-2,5-diazabicyclo[2.2.1]hept-2-yl}carbonyl)cyclopentyl]amino}-4-O-methyl-D-erythro-pentitol]: the IC50 is 6.72 nM under setting [1] and 2.44 nM under setting [2]. For `CO[C@@H]1COCC[C@@H]1N[C@@H]1CC[C@@](C(=O)N2C[C@@H]3C[C@H]2CN3c2nccc(C(F)(F)F)n2)(C(C)C)C1` [Example 12, 1,5-anhydro-2,3-dideoxy-3-{[(1R,3S)-3-isopropyl-3-({(1S,4S)-5-[4-(trifluoromethyl)pyrimidin-2-yl]-2,5-diazabicyclo[2.2.1]hept-2-yl}carbonyl)cyclopentyl]amino}-4-O-methyl-D-erythro-pentitol], in that order: 11.1 nM and 1.7 nM. For `CO[C@@H]1COCC[C@@H]1N[C@@H]1CC[C@@](C(=O)N2C[C@@H]3C[C@H]2CN3c2cncc(C(F)(F)F)n2)(C(C)C)C1` [Example 14, 1,5-anhydro-2,3-dideoxy-3-{[(1R,3S)-3-isopropyl-3-({(1S,4S)-5-[6-(trifluoromethyl)pyrazin-2-yl]-2,5-diazabicyclo[2.2.1]hept-2-yl}carbonyl)cyclopentyl]amino}-4-O-methyl-D-erythro-pentitol], in that order: 10.4 nM and 2.3 nM. As to `CO[C@@H]1COCC[C@@H]1N[C@@H]1CC[C@@](C(=O)N2C[C@@H]3C[C@H]2CN3c2ccnc(C(F)(F)F)n2)(C(C)C)C1` [Example 15, 1,5-anhydro-2,3-dideoxy-3-{[(1R,3S)-3-isopropyl-3-({(1S,4S)-5-[2-(trifluoromethyl)pyrimidin-4-yl]-2,5-diazabicyclo[2.2.1]hept-2-yl}carbonyl)cyclopentyl]amino}-4-O-methyl-D-erythro-pentitol], the IC50 under setting [1] was found to be 40 nM and the IC50 under setting [2] stood at 4.6 nM.

Turning to `CO[C@@H]1COCC[C@@H]1N[C@@H]1CC[C@@](C(=O)N2C[C@@H]3C[C@H]2CN3c2cccc(C(F)(F)F)n2)(C(C)C)C1` [Example 16, 1,5-anhydro-2,3-dideoxy-3-{[(1R,3S)-3-isopropyl-3-({(1S,4S)-5-[6-(trifluoromethyl)pyridin-2-yl]-2,5-diazabicyclo[2.2.1]hept-2-yl}carbonyl)cyclopentyl]amino}-4-O-methyl-D-erythro-pentitol], the half-inhibitory concentration (IC50) by setting is: under setting [1], 9.95 nM; under setting [2], 1.1 nM.

Usually IC50 stands for the midpoint of a concentration-inhibition curve.
